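Where inhibition never reached the appropriate level, the endpoint shown equals the highest concentration tested. Otherwise, values were interpolated linearly from a five-concentration, 48-hour dose response in 96-well plates. TGI: concentration producing complete growth inhibition.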
Tests used:
Test in all cases: NCI tumour cell line growth inhibition, 48 h
SF-539 CNS = test system: SF-539 CNS
MALME-3M melanoma = test system: MALME-3M melanoma
SK-MEL-28 melanoma = test system: SK-MEL-28 melanoma
NCI-H226 lung = test system: NCI-H226 lung
HOP-92 NSCLC = test system: HOP-92 NSCLC
KM20L2 colon = test system: KM20L2 colon
U251 CNS = test system: U251 CNS
M14 melanoma = test system: M14 melanoma
NCI-H460 lung = test system: NCI-H460 lung
HL-60(TB) leukemia = test system: HL-60(TB) leukemia
SN12C renal = test system: SN12C renal
UACC-257 melanoma = test system: UACC-257 melanoma
EKVX NSCLC = test system: EKVX NSCLC
DLD-1 colon = test system: DLD-1 colon
OVCAR-4 ovarian = test system: OVCAR-4 ovarian
UO-31 renal = test system: UO-31 renal
HT29 colon = test system: HT29 colon
OVCAR-5 ovarian = test system: OVCAR-5 ovarian
LOX IMVI melanoma = test system: LOX IMVI melanoma
786-0 renal = test system: 786-0 renal
SF-295 CNS = test system: SF-295 CNS
OVCAR-3 ovarian = test system: OVCAR-3 ovarian
HCT-116 colon = test system: HCT-116 colon
DMS 114 small cell lung = test system: DMS 114 small cell lung
DMS 273 small cell lung = test system: DMS 273 small cell lung
SNB-75 CNS = test system: SNB-75 CNS
SK-MEL-2 melanoma = test system: SK-MEL-2 melanoma
A549 NSCLC = test system: A549 NSCLC
M19-MEL melanoma = test system: M19-MEL melanoma
HOP-18 NSCLC = test system: HOP-18 NSCLC
CAKI-1 renal = test system: CAKI-1 renal
IGROV1 ovarian = test system: IGROV1 ovarian
MOLT-4 leukemia = test system: MOLT-4 leukemia
SK-OV-3 ovarian = test system: SK-OV-3 ovarian
LXFL 529 NSCLC = test system: LXFL 529 NSCLC
ACHN renal = test system: ACHN renal
UACC-62 melanoma = test system: UACC-62 melanoma
HOP-62 NSCLC = test system: HOP-62 NSCLC
COLO 205 colon = test system: COLO 205 colon
TK-10 renal = test system: TK-10 renal
SNB-78 CNS = test system: SNB-78 CNS
SF-268 CNS = test system: SF-268 CNS
RXF 393 renal = test system: RXF 393 renal
HCT-15 colon = test system: HCT-15 colon
HCC-2998 colon = test system: HCC-2998 colon
OVCAR-8 ovarian = test system: OVCAR-8 ovarian
NCI-H522 lung = test system: NCI-H522 lung
RPMI-8226 leukemia = test system: RPMI-8226 leukemia
NCI-H23 lung = test system: NCI-H23 lung
SW-620 colon = test system: SW-620 colon
SK-MEL-5 melanoma = test system: SK-MEL-5 melanoma
SR leukemia = test system: SR leukemia
A498 renal = test system: A498 renal
CCRF-CEM leukemia = test system: CCRF-CEM leukemia
RXF-631 renal = test system: RXF-631 renal
K-562 leukemia = test system: K-562 leukemia
SNB-19 CNS = test system: SNB-19 CNS
XF 498 CNS = test system: XF 498 CNS
KM12 colon = test system: KM12 colon

## BrC(Br)([P+](c1ccccc1)(c1ccccc1)c1ccccc1)[P+](c1ccccc1)(c1ccccc1)c1ccccc1
SF-539 CNS
  TGI: 27.8 µM
MALME-3M melanoma
  TGI: 26.2 µM
SK-MEL-28 melanoma
  TGI: 50 µM
NCI-H226 lung
  TGI: 73 µM
HOP-92 NSCLC
  TGI: 31.2 µM
KM20L2 colon
  TGI: 86.2 µM
U251 CNS
  TGI: 47.3 µM
M14 melanoma
  TGI: 48.9 µM
NCI-H460 lung
  TGI: > 100 µM
HL-60(TB) leukemia
  TGI: 54.3 µM
SN12C renal
  TGI: 61.3 µM
UACC-257 melanoma
  TGI: 50.5 µM
EKVX NSCLC
  TGI: 63 µM
DLD-1 colon
  TGI: 40.6 µM
OVCAR-4 ovarian
  TGI: 43.3 µM
UO-31 renal
  TGI: > 100 µM
HT29 colon
  TGI: 31.9 µM
OVCAR-5 ovarian
  TGI: 81.3 µM
LOX IMVI melanoma
  TGI: 27.2 µM
786-0 renal
  TGI: 26.9 µM
SF-295 CNS
  TGI: > 100 µM
OVCAR-3 ovarian
  TGI: 28.7 µM
HCT-116 colon
  TGI: 46 µM
DMS 114 small cell lung
  TGI: 30.3 µM
DMS 273 small cell lung
  TGI: 32.6 µM
SNB-75 CNS
  TGI: 53.3 µM
SK-MEL-2 melanoma
  TGI: 38.9 µM
A549 NSCLC
  TGI: > 100 µM
M19-MEL melanoma
  TGI: 38.4 µM
HOP-18 NSCLC
  TGI: > 100 µM
CAKI-1 renal
  TGI: 39.5 µM
IGROV1 ovarian
  TGI: 43.2 µM
MOLT-4 leukemia
  TGI: 61.8 µM
SK-OV-3 ovarian
  TGI: > 100 µM
LXFL 529 NSCLC
  TGI: 34.5 µM
ACHN renal
  TGI: 69.3 µM
UACC-62 melanoma
  TGI: 29.8 µM
HOP-62 NSCLC
  TGI: > 100 µM
COLO 205 colon
  TGI: 29.9 µM
TK-10 renal
  TGI: > 100 µM
SNB-78 CNS
  TGI: 90.1 µM
SF-268 CNS
  TGI: > 100 µM
RXF 393 renal
  TGI: 23.6 µM
HCT-15 colon
  TGI: 98.2 µM
HCC-2998 colon
  TGI: 31.8 µM
OVCAR-8 ovarian
  TGI: 26.4 µM
NCI-H522 lung
  TGI: 28.7 µM
RPMI-8226 leukemia
  TGI: 34.4 µM
NCI-H23 lung
  TGI: 34 µM
SW-620 colon
  TGI: 29.6 µM
SK-MEL-5 melanoma
  TGI: 32.2 µM
SR leukemia
  TGI: 56 µM
A498 renal
  TGI: 48 µM

## O=C1CN(c2ccccc2)C(=O)C1C(=O)Nc1ccc(Cl)c(Cl)c1 (stereo not given)
SF-539 CNS
  TGI: 16.3 µM
SK-MEL-28 melanoma
  TGI: 21.4 µM
HOP-92 NSCLC
  TGI: 14.5 µM
KM20L2 colon
  TGI: 16.8 µM
U251 CNS
  TGI: 14.9 µM
M14 melanoma
  TGI: 12.6 µM
HL-60(TB) leukemia
  TGI: 9.66 µM
SN12C renal
  TGI: 17.1 µM
UACC-257 melanoma
  TGI: 22.7 µM
DLD-1 colon
  TGI: 23 µM
OVCAR-4 ovarian
  TGI: 24.5 µM
UO-31 renal
  TGI: 11.7 µM
HT29 colon
  TGI: 17.2 µM
OVCAR-5 ovarian
  TGI: 50.6 µM
SF-295 CNS
  TGI: 14 µM
OVCAR-3 ovarian
  TGI: 12.6 µM
DMS 114 small cell lung
  TGI: 13.3 µM
DMS 273 small cell lung
  TGI: 15.1 µM
SNB-75 CNS
  TGI: 19.2 µM
CCRF-CEM leukemia
  TGI: > 100 µM
A549 NSCLC
  TGI: 15.7 µM
M19-MEL melanoma
  TGI: 14.8 µM
RXF-631 renal
  TGI: 14.3 µM
IGROV1 ovarian
  TGI: 14.9 µM
MOLT-4 leukemia
  TGI: 11.7 µM
SK-OV-3 ovarian
  TGI: 15.8 µM
LXFL 529 NSCLC
  TGI: 14.3 µM
ACHN renal
  TGI: 14.8 µM
UACC-62 melanoma
  TGI: 12.4 µM
HOP-62 NSCLC
  TGI: 6.33 µM
COLO 205 colon
  TGI: 20.4 µM
K-562 leukemia
  TGI: 8.88 µM
TK-10 renal
  TGI: 18.5 µM
SF-268 CNS
  TGI: 21.2 µM
SNB-19 CNS
  TGI: 17.2 µM
HCT-15 colon
  TGI: 13.1 µM
NCI-H522 lung
  TGI: 6.48 µM
NCI-H23 lung
  TGI: 20.2 µM
SW-620 colon
  TGI: 11.9 µM
SK-MEL-5 melanoma
  TGI: 13.2 µM
SR leukemia
  TGI: 5.87 µM

## c1cc2ccc1C1NCCCN1CCN1CCCNC1c1ccc(cc1)C1NCCCN1CCN1CCCNC21 (stereo not given)
SF-539 CNS
  TGI: > 100 µM
MALME-3M melanoma
  TGI: > 100 µM
SK-MEL-28 melanoma
  TGI: > 100 µM
HOP-92 NSCLC
  TGI: > 100 µM
KM20L2 colon
  TGI: > 100 µM
U251 CNS
  TGI: > 100 µM
M14 melanoma
  TGI: > 100 µM
NCI-H460 lung
  TGI: > 100 µM
HL-60(TB) leukemia
  TGI: 67.8 µM
SN12C renal
  TGI: > 100 µM
UACC-257 melanoma
  TGI: > 100 µM
EKVX NSCLC
  TGI: > 100 µM
DLD-1 colon
  TGI: > 100 µM
OVCAR-4 ovarian
  TGI: > 100 µM
UO-31 renal
  TGI: > 100 µM
HT29 colon
  TGI: > 100 µM
OVCAR-5 ovarian
  TGI: > 100 µM
LOX IMVI melanoma
  TGI: > 100 µM
786-0 renal
  TGI: > 100 µM
SF-295 CNS
  TGI: > 100 µM
OVCAR-3 ovarian
  TGI: > 100 µM
HCT-116 colon
  TGI: > 100 µM
DMS 114 small cell lung
  TGI: > 100 µM
DMS 273 small cell lung
  TGI: > 100 µM
SNB-75 CNS
  TGI: > 100 µM
SK-MEL-2 melanoma
  TGI: > 100 µM
CCRF-CEM leukemia
  TGI: > 100 µM
A549 NSCLC
  TGI: > 100 µM
M19-MEL melanoma
  TGI: > 100 µM
HOP-18 NSCLC
  TGI: > 100 µM
CAKI-1 renal
  TGI: > 100 µM
IGROV1 ovarian
  TGI: > 100 µM
MOLT-4 leukemia
  TGI: > 100 µM
SK-OV-3 ovarian
  TGI: > 100 µM
LXFL 529 NSCLC
  TGI: > 100 µM
ACHN renal
  TGI: > 100 µM
UACC-62 melanoma
  TGI: > 100 µM
HOP-62 NSCLC
  TGI: > 100 µM
COLO 205 colon
  TGI: > 100 µM
XF 498 CNS
  TGI: > 100 µM
K-562 leukemia
  TGI: > 100 µM
TK-10 renal
  TGI: > 100 µM
SF-268 CNS
  TGI: > 100 µM
SNB-19 CNS
  TGI: > 100 µM
HCT-15 colon
  TGI: > 100 µM
OVCAR-8 ovarian
  TGI: > 100 µM
NCI-H522 lung
  TGI: 97.9 µM
RPMI-8226 leukemia
  TGI: > 100 µM
NCI-H23 lung
  TGI: > 100 µM
SW-620 colon
  TGI: 48.5 µM
SK-MEL-5 melanoma
  TGI: > 100 µM
A498 renal
  TGI: > 100 µM
KM12 colon
  TGI: > 100 µM

## Cc1ccc(N2C(=O)/C(=C3\Sc4c(nc(C)n(C)c4=O)N3c3ccccc3)SC2=S)cc1
SF-539 CNS
  TGI: 33.7 µM
SK-MEL-28 melanoma
  TGI: > 100 µM
NCI-H226 lung
  TGI: 64.6 µM
HOP-92 NSCLC
  TGI: > 100 µM
KM20L2 colon
  TGI: > 100 µM
U251 CNS
  TGI: > 100 µM
M14 melanoma
  TGI: > 100 µM
NCI-H460 lung
  TGI: 44 µM
HL-60(TB) leukemia
  TGI: > 100 µM
SN12C renal
  TGI: > 100 µM
UACC-257 melanoma
  TGI: > 100 µM
EKVX NSCLC
  TGI: > 100 µM
OVCAR-4 ovarian
  TGI: > 100 µM
UO-31 renal
  TGI: > 100 µM
HT29 colon
  TGI: > 100 µM
OVCAR-5 ovarian
  TGI: > 100 µM
LOX IMVI melanoma
  TGI: > 100 µM
786-0 renal
  TGI: > 100 µM
SF-295 CNS
  TGI: > 100 µM
HCT-116 colon
  TGI: > 100 µM
DMS 114 small cell lung
  TGI: 95.1 µM
DMS 273 small cell lung
  TGI: > 100 µM
SNB-75 CNS
  TGI: 79.4 µM
SK-MEL-2 melanoma
  TGI: > 100 µM
CCRF-CEM leukemia
  TGI: > 100 µM
A549 NSCLC
  TGI: > 100 µM
M19-MEL melanoma
  TGI: > 100 µM
CAKI-1 renal
  TGI: > 100 µM
IGROV1 ovarian
  TGI: > 100 µM
MOLT-4 leukemia
  TGI: > 100 µM
SK-OV-3 ovarian
  TGI: > 100 µM
LXFL 529 NSCLC
  TGI: > 100 µM
ACHN renal
  TGI: > 100 µM
UACC-62 melanoma
  TGI: > 100 µM
COLO 205 colon
  TGI: > 100 µM
XF 498 CNS
  TGI: > 100 µM
K-562 leukemia
  TGI: > 100 µM
TK-10 renal
  TGI: > 100 µM
SNB-78 CNS
  TGI: > 100 µM
SF-268 CNS
  TGI: > 100 µM
RXF 393 renal
  TGI: 53.9 µM
SNB-19 CNS
  TGI: > 100 µM
HCT-15 colon
  TGI: > 100 µM
HCC-2998 colon
  TGI: > 100 µM
OVCAR-8 ovarian
  TGI: 91.3 µM
NCI-H522 lung
  TGI: > 100 µM
RPMI-8226 leukemia
  TGI: > 100 µM
NCI-H23 lung
  TGI: > 100 µM
SW-620 colon
  TGI: > 100 µM
SK-MEL-5 melanoma
  TGI: > 100 µM
SR leukemia
  TGI: > 100 µM
A498 renal
  TGI: 69 µM
KM12 colon
  TGI: > 100 µM
